Reference: publication PMC3467217, “A Potent Class of GPR40 Full Agonists Engages the EnteroInsular Axis to Promote Glucose Control in Rodents” (PLoS ONE, 2012)

Assays:
GPR41 (FFAR3) = molecular target: T1, GPR41 (FFAR3) (Homo sapiens, UniProt O14843); experiment: GPR41 aequorin assay; assay type: cell-based; settings: up to 10 µM
T1 construct: expressed in transfected cells
From the text: (§1) (A) GPR41 (FFAR3) aequorin assay. GPR41 was force coupled to the calcium signaling pathway by co-transfecting the cells with Gqmyri5. (B) GPR43 (FFAR2) aequorin assay. The short chain fatty acid propionate acts as a natural agonist ligand for GPR41 and GPR43. (C) GPR120 aequorin assay. The unsaturated fatty acids α-LNN and DHA act as natural agonist ligands for GPR120. (D) PPAR-gamma luciferase assay using the thiazolidinedione rosiglitazone as a positive control. […] (TIF) Click here for additional data file.

human islet cells = experiment: Inositol phosphate assay with dispersed human islet cells; assay type: cell-based
Method: (§2) Mouse islets were isolated and tested for stimulation of GSIS as described. Human islets were purchased from Prodo labs or were obtained from the National Institutes of Health and Juvenile Diabetes Research Foundation supported Islet Cell Resource Consortium (http://icr.coh.org). Islet inositol phosphate assays were performed on islets cells that had been dispersed with trypsin. 10,000 islet cells were plated/well of a 96-well plate and were loaded with ^3H-myo-inositol (0.5 µCi/well) in RPMI overnight prior to treatment. The next day, response to different stimuli was tested in HBSS containing 10 mM LiCl and 0.1% HSA (w/v) for 1 hour at 37°C. Accumulated ^3H-inositol phosphate was measured after capture to SPA beads. Islet perifusion experiments were performed on mouse islets loaded into a Brandel Suprafusion system. Twenty islets were size-matched and loaded per perifusion chamber. Islets were perifused in KRBH containing, sequentially, 3 mM glucose, then 3 mM glucose containing 10 µM drug, 16.7 mM glucose containing 10 µM drug and finally returned to 3 mM glucose containing 10 µM drug. Insulin was measured using an insulin ELISA kit (Alpco). Fetal rat intestinal cells were isolated from e19-day old fetuses of pregnant Sprague-Dawley rats. […] GLP-1 and GIP1 secreted into the media was measured using ELISA kits specific for GLP-1 (Linco) or GIP (Millipore).

GPR40 = molecular target: T2, GPR40 (Homo sapiens, UniProt O14842); experiment: Inositol phosphate accumulation assay in A9 cells stably expressing GPR40 (A9_GPR40); assay type: cell-based; settings: inositol phosphate assay
T2 construct: expressed in transfected cells; host or cells: CHO cell line stably expressing GPR40 and aequorin
Method: (§3) GPR40 aequorin, plasmid titration, and inositol phosphate assays were performed as described. For aequorin assays, in addition to transient transfection of GPR40 into CHO cells, a CHO cell line stably expressing both GPR40 and aequorin was generated. GLUTag cells were obtained under a license from Dr. Daniel Drucker, University of Toronto. Competition binding experiments were performed using membranes prepared from A9_GPR40 cells. […] Competition binding assays were carried out in 20 mM Hepes pH 7.5, 5 mM MgCl2, 100 mM NaCl and 0.1% (w/v) free fatty acid BSA and bound radioligand was collected on 96-well GF/C filter plates.
(A) Structure of selected GPR40 agonists. (B) GPR40 agonists were tested in parallel in vitro in an inositol phosphate accumulation assay in A9 cells stably expressing GPR40. (TIF) Click here for additional data file.

[1] = rat, mouse, beagle dog and cynomolgus monkey; cited from earlier work
GPR43 (FFAR2) = molecular target: T3, GPR43 (FFAR2) (Homo sapiens, UniProt O15552); experiment: GPR43 aequorin assay; assay type: cell-based; settings: up to 10 µM
T3 construct: expressed in transfected cells
From the text: as §1

PPAR gamma = PPAR gamma (Homo sapiens, UniProt P37231); experiment: PPAR-gamma luciferase assay; assay type: cell-based; settings: concentrations up to 10 µM
From the text: as §1

[2] = tested on: fetal rat intestinal cells; experiment: GLP-1 secretion assay with fetal rat intestinal cells; assay type: cell-based; settings: 1 hour
From the text: (§4) Increased GLP-1 and GIP would be expected to have additional benefits in type 2 diabetics. […] We tested for potential effects on incretin secretion in vitro by using cells isolated from fetal rat intestines.
as §2, with “Islets were perifused in KRBH containing, sequentially, 3 mM glucose, then 3 mM glucose containing 10 µM drug, 16.7 mM glucose containing 10 µM drug and finally returned to 3 mM glucose containing 10 µM drug.” left out, “(Alpco).” for “(Alpco). Fetal rat intestinal cells were isolated from e19-day old fetuses of pregnant Sprague-Dawley rats.”

GLUTag cells = experiment: Inositol phosphate accumulation assay in GLUTag enteroendocrine L-cell line; assay type: cell-based, mouse
Method: as §4, §3

HF/STZ mice = experiment: OGTT in high-fat fed, streptozotocin-treated (HF/STZ) type 2 diabetic mice; assay type: in vivo, mouse; settings: OGTT; for Glucose AUC improvement: 1 hour before glucose
Method: (§5) All procedures on animals were approved by the Amgen San Francisco Institutional Animal Care and Use Committee (approved protocols #11–04 and #2007–00106). The Amgen San Francisco vivarium is an AAALAC accredited facility. Animals were housed under a 12-h light, 12-h dark cycle (lights-on 0600 h and lights-off 1800 h) and were allowed ad libidum access to chow and water. The HF/STZ mice were established as previously described. Briefly, C57BL/6j mice (Jackson labs) at 4 weeks of age were fed a high-fat diet (BioServ S1850, 35% fat) for 3-weeks and then injected with 95 mg/kg streptozotocin (Sigma) ip to induce beta cell dysfunction. The animals continued on the same high fat diet for 3–6 additional weeks. Animals were then randomized into treatment groups based on fasting blood glucose and insulin measures. NONcNZO10/LtJ (RCS10) male mice (Jackson labs) were used at 12-weeks of age and randomized for treatment based on fasting glucose levels. For OGTT experiments, drugs were formulated in 1% HPMC, 10% HPbCD, 1% Tween-80 and dosed via oral gavage. Glucose was administered at 2 g/kg 1-hour post drug dose by oral gavage.
(§6) For all glucose tolerance tests, glucose and insulin measurements were taken from tail vein samples at various time-points. Blood glucose values were measured on an Accu-Chek glucometer (Roche Diagnostics), while insulin levels were determined using an ELISA (Alpco).

NONcNZO10/LtJ mice = experiment: OGTT in NONcNZO10/LtJ type 2 diabetic mice; assay type: in vivo, mouse
Method: NONcNZO10/LtJ mice retain an intact leptin pathway but contain polygenic defects contributing to moderate and mature onset obesity and diabetes, [31].
as §5, §6

mouse islets = experiment: Mouse islet perifusion assay; assay type: cell-based; settings: 10 µM compound
Method: Mouse islets were isolated and tested for stimulation of GSIS as described. Human islets were purchased from Prodo labs or were obtained from the National Institutes of Health and Juvenile Diabetes Research Foundation supported Islet Cell Resource Consortium (http://icr.coh.org). Islet inositol phosphate assays were performed on islets cells that had been dispersed with trypsin. 10,000 islet cells were plated/well of a 96-well plate and were loaded with ^3H-myo-inositol (0.5 µCi/well) in RPMI overnight prior to treatment. The next day, response to different stimuli was tested in HBSS containing 10 mM LiCl and 0.1% HSA (w/v) for 1 hour at 37°C. Accumulated ^3H-inositol phosphate was measured after capture to SPA beads. Islet perifusion experiments were performed on mouse islets loaded into a Brandel Suprafusion system. Twenty islets were size-matched and loaded per perifusion chamber. Islets were perifused in KRBH containing, sequentially, 3 mM glucose, then 3 mM glucose containing 10 µM drug, 16.7 mM glucose containing 10 µM drug and finally returned to 3 mM glucose containing 10 µM drug. Insulin was measured using an insulin ELISA kit (Alpco). Fetal rat intestinal cells were isolated from e19-day old fetuses of pregnant Sprague-Dawley rats. Briefly, fetal intestines were isolated and digested in HBSS buffer containing 0.5 mg/ml collagenase (Sigma), 0.5 mg/ml of hyaluronidase (Sigma) and 0.05 mg/ml of deoxyribonuclease I (Roche) for 30 minutes at 37°C. The digestion was quenched using HBSS containing 15% FBS. Fetal rat intestinal cells were washed and cultured overnight in DMEM containing 5% FBS in 96-well plates. To test for secretion of GLP-1 and GIP in response to treatments, we incubated cells for 1 hour with treatments in KRBH buffer containing 0.05% BSA (w/v). GLP-1 and GIP1 secreted into the media was measured using ELISA kits specific for GLP-1 (Linco) or GIP (Millipore).

[3] = Unbound plasma drug concentration in HF/STZ mice; assay type: in vivo; settings: C57BL/6j, mouse, 100 mg/kg oral, 1-hour post drug administration, by MS, read-out: free drug level in plasma

T2 sequence (O14842 whole entry): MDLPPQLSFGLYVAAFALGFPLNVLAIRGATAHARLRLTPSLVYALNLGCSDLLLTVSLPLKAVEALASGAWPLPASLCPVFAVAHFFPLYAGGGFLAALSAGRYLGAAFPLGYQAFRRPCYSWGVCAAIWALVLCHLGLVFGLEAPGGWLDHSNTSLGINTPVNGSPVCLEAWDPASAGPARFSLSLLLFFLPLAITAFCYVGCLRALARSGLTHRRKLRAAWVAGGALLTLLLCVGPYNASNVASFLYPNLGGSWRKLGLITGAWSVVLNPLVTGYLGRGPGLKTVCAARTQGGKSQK
T3 sequence (O15552 whole entry, species assumed): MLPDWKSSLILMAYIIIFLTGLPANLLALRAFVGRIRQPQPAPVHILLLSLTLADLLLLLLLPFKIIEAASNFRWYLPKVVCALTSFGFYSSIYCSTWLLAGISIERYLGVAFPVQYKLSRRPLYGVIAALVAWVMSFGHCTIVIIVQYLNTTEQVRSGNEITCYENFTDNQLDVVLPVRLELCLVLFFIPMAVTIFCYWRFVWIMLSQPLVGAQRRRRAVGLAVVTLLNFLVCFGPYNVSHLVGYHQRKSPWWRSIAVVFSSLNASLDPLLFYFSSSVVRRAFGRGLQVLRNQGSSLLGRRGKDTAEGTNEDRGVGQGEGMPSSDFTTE
Sequence of PPAR gamma (P37231 whole entry): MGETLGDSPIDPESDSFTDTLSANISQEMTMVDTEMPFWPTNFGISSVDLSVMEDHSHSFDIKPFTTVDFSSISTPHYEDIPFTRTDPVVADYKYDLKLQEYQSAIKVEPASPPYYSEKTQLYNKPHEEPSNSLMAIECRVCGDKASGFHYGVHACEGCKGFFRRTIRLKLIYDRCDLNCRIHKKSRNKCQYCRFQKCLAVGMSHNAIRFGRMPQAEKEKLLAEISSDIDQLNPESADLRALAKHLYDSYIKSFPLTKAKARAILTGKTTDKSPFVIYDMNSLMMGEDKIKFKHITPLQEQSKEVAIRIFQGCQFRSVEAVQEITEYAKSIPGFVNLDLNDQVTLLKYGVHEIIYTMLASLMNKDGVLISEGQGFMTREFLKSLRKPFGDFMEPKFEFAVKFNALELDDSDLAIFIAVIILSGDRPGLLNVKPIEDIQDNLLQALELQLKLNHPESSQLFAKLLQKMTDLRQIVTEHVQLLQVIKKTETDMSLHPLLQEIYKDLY
T1 sequence (O14843 whole entry, species assumed): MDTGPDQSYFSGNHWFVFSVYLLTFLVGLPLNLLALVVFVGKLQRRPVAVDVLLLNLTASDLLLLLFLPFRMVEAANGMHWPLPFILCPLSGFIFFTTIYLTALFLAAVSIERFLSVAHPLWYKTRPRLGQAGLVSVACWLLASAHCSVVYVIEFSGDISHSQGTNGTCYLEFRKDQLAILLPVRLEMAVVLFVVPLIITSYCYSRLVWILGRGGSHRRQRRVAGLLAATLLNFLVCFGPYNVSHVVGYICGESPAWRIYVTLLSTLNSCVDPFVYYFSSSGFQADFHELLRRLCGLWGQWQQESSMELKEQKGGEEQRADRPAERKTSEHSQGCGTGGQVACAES

activation of GPR41 (FFAR3) (GPR41 (FFAR3)): did not activate
intrinsic activity, fold greater than AMG 837 (GPR40): ~2 fold
EC50 (GPR40; 1-hour accumulation, read-out: Half-maximal potency): 13.1 ± 1.1 nM
activation of GPR43 (FFAR2) (GPR43 (FFAR2)): did not activate
activation of PPAR gamma (PPAR gamma): did not activate
concentration at 1 h [3]: 363 ± 48 nM
SMILES: COc1ccc(F)c(-c2ccc(COc3cccc([C@@H](CC(=O)O)C4CC4)c3)cc2C2=CCCC2(C)C)c1 [AM-1638]
IP production efficacy, fold greater than AMG 837 (human islet cells): 8–10 ×
pharmacokinetic properties [1]: suitable for oral dosing
GLP-1 release in vitro [2]: could stimulate GLP-1 release
inositol phosphate accumulation, fold increase compared to AMG 837 (GLUTag cells): 3–4 fold
Glucose AUC improvement (HF/STZ mice; 10 mg/kg oral): 15%
Glucose AUC improvement (HF/STZ mice; 30 mg/kg oral): 23%
Glucose AUC improvement (HF/STZ mice; 60 mg/kg oral): 35%
Glucose AUC improvement (HF/STZ mice; 100 mg/kg oral): 48%
insulin secretion, fold greater than AMG 837 (HF/STZ mice; higher doses): 1.5–2.2 fold
GIP levels vs vehicle (NONcNZO10/LtJ mice; 60 mg/kg, 15 minutes after glucose challenge): did not reach statistical significance
insulin and GLP-1 levels 15 minutes after glucose challenge (NONcNZO10/LtJ mice; 60 mg/kg, vs vehicle and baseline): significantly increased
Glucose AUC change as printed in figure 5B (NONcNZO10/LtJ mice; OGTT, 60mg/kg): -26%
Glucose AUC reduction compared to vehicle (NONcNZO10/LtJ mice; OGTT, single 60 mg/kg oral dose): 26%
glucose excursions during OGTT (NONcNZO10/LtJ mice; single 60 mg/kg oral dose): almost complete suppression
insulin stimulation compared to vehicle control (mouse islets; 3 mM glucose): neither AMG 837 nor AM-1638 stimulated insulin
insulin secretion (mouse islets; 16.7 mM glucose): increased both first and second phase insulin secretion
